From patent US9682953B2, “Amide compounds, compositions and applications thereof” (Advinus Therapeutics Limited, priority 2011, dated 2017)
Structures can show the parent of a compound that is named as a salt. Where two headings read alike, the source gives them in different places.

Assays:
[1] = biological target: rat Fatty Acid Amide Hydrolase (FAAH) (Rattus norvegicus (Rat), UniProt P97612); experiment: FAAH in vitro fluorescence assay (AAMCA hydrolysis), rat enzyme; assay type: biochemical; settings: rat FAAH; for inhibition at 10 µM: read-out: rFAAH % inhibition at 10 uM; for IC50: read-out: rFAAH IC50; for inhibition at 0.1 µM: read-out: rFAAH % inhibition at 100 nM, 100 nM (tier I)
Chain of rat Fatty Acid Amide Hydrolase (FAAH) (P97612 30-579): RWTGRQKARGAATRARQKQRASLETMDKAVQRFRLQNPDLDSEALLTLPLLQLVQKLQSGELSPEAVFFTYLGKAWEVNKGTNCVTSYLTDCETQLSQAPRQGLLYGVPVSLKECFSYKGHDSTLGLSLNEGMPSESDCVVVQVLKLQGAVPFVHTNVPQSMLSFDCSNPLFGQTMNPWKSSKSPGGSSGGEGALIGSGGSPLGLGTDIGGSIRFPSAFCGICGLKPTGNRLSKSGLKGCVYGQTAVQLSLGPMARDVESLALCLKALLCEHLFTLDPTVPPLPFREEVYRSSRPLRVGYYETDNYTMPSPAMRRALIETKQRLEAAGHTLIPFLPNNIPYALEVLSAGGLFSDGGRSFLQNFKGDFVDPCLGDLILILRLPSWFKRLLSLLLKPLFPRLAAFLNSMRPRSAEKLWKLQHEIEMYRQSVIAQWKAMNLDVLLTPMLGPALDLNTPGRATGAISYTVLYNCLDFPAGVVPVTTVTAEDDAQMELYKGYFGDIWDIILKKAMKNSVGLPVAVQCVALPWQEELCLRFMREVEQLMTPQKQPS
Procedure: Material and Reagents: All reagents were purchased from Sigma-Aldrich unless specified. […] Chaperone protein groEL-groES in pGRO7 plasmid (Takara Bio Inc, Japan) was co-expressed with Fatty Acid Amide Hydrolase (FAAH) to improve solubility of the protein expressed in E coli. […] Briefly, the bacterial cultures in Luria Broth (2 L) were induced with arabinose (2 mM) and Isopropyl (β-D-1-thiogalactopyranoside, IPTG (1 mM), for 20 h at room temperature. The cultures were centrifuged at 1200×g for 10 min and the cell pellet was resuspended in 100 mL buffer containing of 20 mM NaPi (pH 7.4), 100 mM NaCl, Benzonase (500u), Aprotinin (1 μg/mL) and Leupeptin (1 μg/mL). Cells were lyzed by sonication (Amp 20%, Pulse 15 s×15, on ice) and the cell debris removed by centrifugation at 5000×g for 20 min. The supernatant was enriched via ultracentrifugation at 100,000×g for 1 h and the cell pellet was resuspended in 16 mL buffer containing 20 mM NaPi (pH 7.8), 500 mM NaCl, 1% Triton X-100. The resuspended cell extract was subjected to ultra-centrifugation at 100,000×g for 1 h and the enriched supernatant was used in the in vitro assay. All protein extraction steps were carried out on ice or at 4° C.
The assay was carried out in 200 μL volume in a 96-well black polystyrene plate (Greiner Bio-one, Germany). Each reaction consisted of human Fatty Acid Amide Hydrolase (FAAH) protein and 10 μM AAMCA in assay buffer containing 50 mM HEPES, 1 mM EDTA and 0.1% BSA, pH 7.4. The reaction was incubated with 2 μL of varying concentrations of inhibitor in DMSO (final concentration of DMSO 1%) with shaking for 1 min and monitored for increase in fluorescence in kinetic mode for 50 min. […] Rate of reaction as a function of the concentration of the inhibitor was used to determine the IC50 of the inhibitors. Data was analyzed using GraphPad Prism 5 (GraphPad Software Inc., San Diego, Calif.). The activity of the compounds for rat Fatty Acid Amide Hydrolase (FAAH) was evaluated as described above with rat Fatty Acid Amide Hydrolase (FAAH) protein and 10 μM AAMCA substrate.

[2] = biological target: human Fatty Acid Amide Hydrolase (FAAH) (Homo sapiens (Human), UniProt O00519); experiment: biochemical; settings: for inhibition at 0.1 µM: read-out: hFAAH % inhibition at 100 nM, 100 nM (tier I)
Chain of human Fatty Acid Amide Hydrolase (FAAH) (O00519 30-579): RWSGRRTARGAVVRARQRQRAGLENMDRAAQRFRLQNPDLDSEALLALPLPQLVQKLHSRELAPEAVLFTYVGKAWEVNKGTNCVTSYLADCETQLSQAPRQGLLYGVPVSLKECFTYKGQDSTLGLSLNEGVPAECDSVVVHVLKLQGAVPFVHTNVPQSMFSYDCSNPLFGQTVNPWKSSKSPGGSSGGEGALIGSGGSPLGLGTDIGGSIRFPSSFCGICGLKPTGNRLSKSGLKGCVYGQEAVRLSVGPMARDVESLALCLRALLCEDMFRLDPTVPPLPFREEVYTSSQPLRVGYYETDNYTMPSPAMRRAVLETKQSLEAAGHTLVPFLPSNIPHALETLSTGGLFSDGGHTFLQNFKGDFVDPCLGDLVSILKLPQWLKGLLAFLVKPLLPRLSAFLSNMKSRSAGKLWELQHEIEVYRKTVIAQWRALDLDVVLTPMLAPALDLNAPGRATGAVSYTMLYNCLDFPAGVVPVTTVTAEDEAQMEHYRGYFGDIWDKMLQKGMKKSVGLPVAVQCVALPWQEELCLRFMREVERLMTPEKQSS

[3] = human FAAH, read-out: hFAAH IC50

SMILES | IC50 ([2]; read-out: hFAAH IC50) [nM] | IC50 [2, 3] [nM] | further results
O=C(NC1CCC(=Cc2cccc(Oc3ccc(C(F)(F)F)cn3)c2)CC1)c1cccnc1 (single isomer, unassigned; (+)) [Example 20.A-1, (+)-N-[4-[[3-[[5-(Trifluoromethyl)-2-pyridyl]oxy]phenyl]methylene]cyclohexyl]pyridine-3-carboxamide] | – | – | inhibition at 10 µM [1]: 60%
Nc1ccc(C(=O)NC2CCC(=Cc3cccc(Oc4ccc(C(F)(F)F)cn4)c3)CC2)cn1 (single isomer, unassigned; (+)) [Example 20.A-3, (+)-6-Amino-N-[4-[[3-[[5-(trifluoromethyl)-2-pyridyl]oxy]phenyl]methylene]cyclohexyl]pyridine-3-carboxamide] | 361 | – | inhibition at 10 µM [1]: 70%
Cc1cc(C(=O)NC2CCC(=Cc3cccc(Oc4ccc(C(F)(F)F)cn4)c3)CC2)cnc1N (single isomer, unassigned; (+)) [Example 20.A-5, (+)-6-Amino-5-methyl-N-[4-[[3-[[5-(trifluoromethyl)-2-pyridyl]oxy]phenyl]methylene]cyclohexyl]pyridine-3-carboxamide] | – | 247 | –
O=C(NC1CCC(=Cc2cccc(Oc3ccc(C(F)(F)F)cn3)c2)CC1)c1c[nH]nc1C(F)(F)F (single isomer, unassigned; (+)) [Example 20.A-7, (+)-3-(Trifluoromethyl)-N-[4-[[3-[[5-(trifluoromethyl)-2-pyridyl]oxy]phenyl]methylene]cyclohexyl]-1H-pyrazole-4-carboxamide] | 67 | – | inhibition at 10 µM [1]: 85%
Nc1ncc(C(=O)NC2CCC(=Cc3cccc(Oc4ccc(C(F)(F)F)cn4)c3)CC2)cn1 (single isomer, unassigned; (+)) [Example 20.A-9] | 40 | – | –
O=C(NC1CCC(=Cc2cccc(Oc3ccc(C(F)(F)F)cn3)c2)CC1)c1cn[nH]c1 (single isomer, unassigned; (+)) [Example 20.A-11, (+)-N-[4-[[3-[[5-(trifluoromethyl)-2-pyridyl]oxy]phenyl]methylene]cyclohexyl]-1H-pyrazole-4-carboxamide] | – | 78 | inhibition at 10 µM [1]: 86%
O=C(NC1CCC(=Cc2cccc(Oc3ccc(C(F)(F)F)cn3)c2)CC1)c1cnc2[nH]ccc2c1 (single isomer, unassigned; (+)) [Example 20.A-13, (+)-N-[4-[[3-[[5-(trifluoromethyl)-2-pyridyl]oxy]phenyl]methylene]cyclohexyl]-1H-pyrrolo[2,3-b]pyridine-5-carboxamide] | 55 | – | IC50 [1]: 407 nM
O=C(NC1CCC(=Cc2cccc(Oc3ccc(C(F)(F)F)cn3)c2)CC1)c1cccnn1 (single isomer, unassigned; (+)) [Example 20.A-15, (+)-N-[4-[[3-[[5-(trifluoromethyl)-2-pyridyl]oxy]phenyl]methylene]cyclohexyl]pyridazine-3-carboxamide] | 431 | – | IC50 [1]: 408 nM
O=C(NC1CCC(=Cc2cccc(Oc3ccc(C(F)(F)F)cn3)c2)CC1)c1cncnc1 (single isomer, unassigned; (+)) [Example 20.A-19, (+)-N-[4-[[3-[[5-(trifluoromethyl)-2-pyridyl]oxy]phenyl]methylene]cyclohexyl]pyrimidine-5-carboxamide] | 14.3 | – | –
Cc1nc(Oc2cccc(C=C3CCC(NC(=O)c4cnc(N)nc4)CC3)c2)ccc1Cl (single isomer, unassigned; (+)) [Example 20.A-21, (+)-2-Amino-N-[4-[[3-[(5-chloro-6-methyl-2-pyridyl)oxy]phenyl]methylene]cyclohexyl]pyrimidine-5-carboxamide] | – | 9 | –
O=C(NC1CCC(=Cc2cccc(Oc3ccc(C(F)(F)F)cn3)c2)CC1)c1cccnc1 (single isomer, unassigned; (-)) [Example 20.A-2, (−)-N-[4-[[3-[[5-(Trifluoromethyl)-2-pyridyl]oxy]phenyl]methylene]cyclohexyl]pyridine-3-carboxamide] | – | – | IC50 ([2]; hFAAH IC50): 0.7 nM
O=C(NC1CCC(=Cc2cccc(Oc3ccc(C(F)(F)F)cn3)c2)CC1)c1cncnc1 (single isomer, unassigned; (-)) [Example 20.A-20, (−)-N-[4-[[3-[[5-(Trifluoromethyl)-2-pyridyl]oxy]phenyl]methylene]cyclohexyl]pyrimidine-5-carboxamide] | 0.8 | – | –
Cc1nc(Oc2cccc(C=C3CCC(NC(=O)c4cnc(N)nc4)CC3)c2)ccc1Cl (single isomer, unassigned; (-)) [Example 20.A-22, (−)-2-Amino-N-[4-[[3-[(5-chloro-6-methyl-2-pyridyl)oxy]phenyl]methylene]cyclohexyl]pyrimidine-5-carboxamide] | – | 1.1 | –
O=C(Nc1cccnc1)C1CCC(=Cc2cccc(Oc3ccc(C(F)(F)F)cn3)c2)CC1 (stereo not drawn) [Example 1.2, N-(3-Pyridyl)-4-[[3-[[5-(trifluoromethyl)-2-pyridyl]oxy]phenyl]-methylene]cyclohexanecarboxamide hydrochloride] | – | – | IC50 ([2]; hFAAH IC50): 17 nM
O=C(Nc1cccnn1)C1CCC(=Cc2cccc(Oc3ccc(C(F)(F)F)cn3)c2)CC1 (stereo not drawn) [Example 1.A-1, N-Pyridazin-3-yl-4-[[3-[[5-(trifluoromethyl)-2-pyridyl]oxy]phenyl]methylene]cyclohexanecarboxamide] | – | 17 | –
O=C(NC1CCC(=Cc2cccc(Oc3ccc(C(F)(F)F)cn3)c2)CC1)c1cccnc1 (stereo not drawn) [Example 2.1, N-[4-[[3-[[5-(Trifluoromethyl)-2-pyridyl]oxy]phenyl]methylene]cyclohexyl]pyridine-3-carboxamide] | – | – | IC50 ([2]; hFAAH IC50): 2 nM
Cc1[nH]nc(C(F)(F)F)c1C(=O)NC1CCC(=Cc2cccc(Oc3ccc(C(F)(F)F)cn3)c2)CC1 (stereo not drawn) [Example 2.A-36, 5-Methyl-3-(trifluoromethyl)-N-[4-[[3-[[5-(trifluoromethyl)-2-pyridyl]oxy]phenyl]methylene]cyclohexyl]-1H-pyrazole-4-carboxamide] | – | – | inhibition at 0.1 µM ([2]; human FAAH): 50%
O=C(NC1CCC(=Cc2cccc(Oc3ccc(C(F)(F)F)cn3)c2)CC1)c1ccc(O)nc1 (stereo not drawn) [Example 2.C-3, 6-Hydroxy-N-[4-[[3-[[5-(trifluoromethyl)-2-pyridyl]oxy]phenyl]methylene]cyclohexyl]pyridine-3-carboxamide] | – | 19 | –
Nc1ncccc1C(=O)NC1CCC(=Cc2cccc(Oc3ccc(C(F)(F)F)cn3)c2)CC1 (stereo not drawn) [Example 2.C-5, 2-Amino-N-[4-[[3-[[5-(trifluoromethyl)-2-pyridyl]oxy]phenyl]methylene]cyclohexyl]pyridine-3-carboxamide] | – | 37 | –
O=C(NC1CCC(=Cc2cccc(Oc3ccc(C(F)(F)F)cn3)c2)CC1)c1nc2cccnc2s1 [Example 2.D-3, N-[4-[[3-[[5-(Trifluoromethyl)-2-pyridyl]oxy]phenyl]methylene]cyclohexyl]thiazolo[5,4-b]pyridine-2-carboxamide] | – | – | inhibition at 0.1 µM [1]: 38%
O=C(O)Cn1cc(C(=O)NC2CCC(=Cc3cccc(Oc4ccc(C(F)(F)F)cn4)c3)CC2)cn1 (stereo not drawn) [Example 8.A-2, 2-[4-[[4-[[3-[[5-(Trifluoromethyl)-2-pyridyl]oxy]phenyl]methylene]cyclohexyl]carbamoyl]pyrazol-1-yl]acetic acid] | – | – | inhibition at 0.1 µM ([2]; human FAAH): 40%
O=C(NC1CCC(=Cc2cccc(Oc3ccc(C(F)(F)F)cn3)c2)CC1)c1ccc(-n2ccc(C(=O)O)n2)nc1 (stereo not drawn) [Example 8.A-5, 1-[5-[[4-[[3-[[5-(Trifluoromethyl)-2-pyridyl]oxy]phenyl]methylene]cyclohexyl]carbamoyl]-2-pyridyl]pyrazole-3-carboxylic acid] | – | – | inhibition at 0.1 µM [1]: 55%
